Reference: the NIST ThermoML archive (doi:10.1021/je034087q)
± gives the expanded uncertainty stated by the source.

Experiment: xn = mol fraction of the nth substance listed
Details: 323.15 K, Fluid (supercritical or subcritical phases)

CCCCC [pentane] + O=C=O
Details	mass density [kg/m3]
2770 kPa, x2 = 0.214	612 ± 4
3730 kPa, x2 = 0.36	633 ± 4
3800 kPa, x2 = 0.214	617 ± 4
4510 kPa, x2 = 0.36	635 ± 4
5380 kPa, x2 = 0.36	636 ± 4
5920 kPa, x2 = 0.214	623 ± 4
6240 kPa, x2 = 0.36	640 ± 4
6870 kPa, x2 = 0.671	707 ± 4
7170 kPa, x2 = 0.36	643 ± 4
7390 kPa, x2 = 0.791	655 ± 4
7500 kPa, x2 = 0.671	713 ± 4
7530 kPa, x2 = 0.214	627 ± 4
7770 kPa, x2 = 0.791	663 ± 4
8020 kPa, x2 = 0.87	577 ± 4
8150 kPa, x2 = 0.36	645 ± 4
8150 kPa, x2 = 0.87	584 ± 4
8220 kPa, x2 = 0.916	454 ± 3
8230 kPa, x2 = 0.916	458 ± 3
8240 kPa, x2 = 0.916	460 ± 3
8240 kPa, x2 = 0.939	352 ± 2
8260 kPa, x2 = 0.87	590 ± 4
8270 kPa, x2 = 0.916	468 ± 3
8270 kPa, x2 = 0.939	356 ± 2
8280 kPa, x2 = 0.791	670 ± 4
8290 kPa, x2 = 0.939	358 ± 2
8310 kPa, x2 = 0.939	361 ± 2
8320 kPa, x2 = 0.916	475 ± 3
8330 kPa, x2 = 0.939	363 ± 2
8370 kPa, x2 = 0.671	719 ± 4
8370 kPa, x2 = 0.916	483 ± 3
8380 kPa, x2 = 0.939	368 ± 2
8390 kPa, x2 = 0.901	515 ± 3
8410 kPa, x2 = 0.916	491 ± 3
8420 kPa, x2 = 0.87	597 ± 4
8420 kPa, x2 = 0.939	375 ± 2
8430 kPa, x2 = 0.901	520 ± 3
8450 kPa, x2 = 0.916	499 ± 3
8460 kPa, x2 = 0.901	524 ± 3
8460 kPa, x2 = 0.939	380 ± 2
8500 kPa, x2 = 0.901	529 ± 3
8500 kPa, x2 = 0.916	508 ± 3
8500 kPa, x2 = 0.939	386 ± 2
8530 kPa, x2 = 0.901	533 ± 3
8540 kPa, x2 = 0.939	393 ± 2
8550 kPa, x2 = 0.87	602 ± 4
8570 kPa, x2 = 0.901	538 ± 3
8570 kPa, x2 = 0.916	517 ± 3
8570 kPa, x2 = 0.939	399 ± 3
8620 kPa, x2 = 0.901	542 ± 3
8620 kPa, x2 = 0.939	406 ± 3
8650 kPa, x2 = 0.916	527 ± 3
8660 kPa, x2 = 0.939	413 ± 3
8670 kPa, x2 = 0.901	548 ± 3
8700 kPa, x2 = 0.939	420 ± 3
8710 kPa, x2 = 0.87	610 ± 4
8710 kPa, x2 = 0.901	552 ± 3
8710 kPa, x2 = 0.916	536 ± 3
8740 kPa, x2 = 0.939	428 ± 3
8760 kPa, x2 = 0.901	558 ± 4
8810 kPa, x2 = 0.916	546 ± 3
8810 kPa, x2 = 0.939	436 ± 3
8830 kPa, x2 = 0.901	562 ± 4
8850 kPa, x2 = 0.939	444 ± 3
8860 kPa, x2 = 0.791	681 ± 4
8890 kPa, x2 = 0.901	568 ± 4
8890 kPa, x2 = 0.939	453 ± 3
8920 kPa, x2 = 0.87	619 ± 4
8930 kPa, x2 = 0.916	556 ± 3
8950 kPa, x2 = 0.939	461 ± 3
8980 kPa, x2 = 0.901	573 ± 4
9010 kPa, x2 = 0.939	470 ± 3
9050 kPa, x2 = 0.901	579 ± 4
9070 kPa, x2 = 0.916	568 ± 4
9070 kPa, x2 = 0.939	479 ± 3
9120 kPa, x2 = 0.87	624 ± 4
9140 kPa, x2 = 0.901	583 ± 4
9140 kPa, x2 = 0.939	489 ± 3
9210 kPa, x2 = 0.939	500 ± 3
9230 kPa, x2 = 0.901	590 ± 4
9240 kPa, x2 = 0.916	579 ± 4
9280 kPa, x2 = 0.36	647 ± 4
9300 kPa, x2 = 0.939	511 ± 3
9350 kPa, x2 = 0.901	595 ± 4
